Data reported in patent US10350210B2, “EGFR and ALK dual inhibitor” (PRECEDO PHARMACEUTICALS CO., LTD, priority 2015, dated 2019).
Like-named read-outs stand apart in the source and are kept apart here.

Legend:
NCI-H3122 = assay: Growth of cancer cells (Cell Titer-Glo viability), NCI-H3122; type: cell-based; settings: Homo sapiens
Text: (§1) By testing the effect of the novel kinase inhibitors on the proliferation of cancer cells, the selectivity of the compounds of the present disclosure in inhibiting the proliferation of cancer cells was further assessed. In this example, human non-small cell lung cancer cell NCI-H1975 (expressing EGFR L858R/T790M double mutant gene), human skin squamous carcinoma cell A431 (expressing wild-type EGFR gene), non-small cell lung cancer NCI-H3255 (expressing EGFR L858R mutant gene), non-small cell lung cancer cell NCI-H3122 (expressing ALK gene), human non-small cell lung cancer cell A549 (expressing wild-type EGFR gene), human non-small cell lung cancer cell NCI-H2122 (expressing wild-type EGFR gene), human non-small cell lung cancer cell NCI-H460 (expressing wild-type EGFR gene), human non-small cell lung cancer cell PC-9 (expressing EGFR delE746_A750 mutant gene), Chinese hamster ovary cell CHO (Cricetulus griseus, hamster, Chinese, ovary), Chinese hamster lung cell CHL, human non-small cell lung cancer cell HCC827 (expressing mutant EGFR del19 gene), human lung adenocarcinoma cell HCC4006 (expressing mutant EGFR del19 gene), human non-small cell lung cancer cell NCI-H2228 (expressing wild-type ALK gene), and mouse primary B cell BaF3 were used, and the above cells were all purchased from ATCC (US). In addition, mouse BaF3-TEL-ALK (stably expressing ALK kinase), mouse BaF3-ALK-F1174L (stably expressing mutant ALK F1174L kinase), mouse BaF3-NPM-ALK (stably expressing ALK kinase), mouse BaF3-TEL-EGFR (stably expressing EGFR kinase), mouse BaF3-TEL-EGFR-T790M (stably expressing EGFR T790M mutant kinase), mouse BaF3-FL-EGFR-Del19 (stably expressing EGFR delE746_A750 mutant kinase), mouse BaF3-TEL-EGFR-L858R (stably expressing EGFR L858R mutant kinase), mouse BaF3-FL-EGFR-T790M-L858R (stably expressing EGFR T790M/L858R mutant kinase), mouse BaF3-TEL-INSR (stably expressing INSR protein), mouse BaF3-TEL-IGF1R (stably expressing IGF1R Protein), mouse BaF3-EML4-ALK (stably expressing EML4-ALK Protein), mouse BaF3-TEL-JAK3 (stably expressing JAK3 kinase protein), mouse BaF3-TEL-CSF1R (stably expressing CSF1R protein), and mouse BaF3-TEL-ALK-F1196M (stably expressing ALK F1196M mutant kinase) were also used in this example. The above cell lines were all established by our laboratory via the following process: kinase proteins or protein domain sequences of human ALK, ALK F1174L, EGFR, EGFR T790M, EGFR delE746_A750, EGFR L858, EGFR T790M/L858R, INSR, IGF1R, EML4-ALK, JAK3, CSF1R, ALK F1196M were amplified respectively by PCR, and were respectively inserted into MSCV-Puro vector (Clontech) with N-terminal TEL fragments and/or NPM fragments and/or TPR fragments; the resultants were stably transfected into mouse BaF3 cells by the means of retrovirus, and the IL-3 growth factors were removed, and eventually the ALK, ALK F1174L, EGFR, EGFR T790M, EGFR delE746_A750, EGFR L858, EGFR T790M/L858R, INSR, IGF1R, EML4-ALK, JAK3, CSF1R, ALK F1196M-transferred protein dependent cell lines were obtained.
(§2) The number of viable cells was determined quantitatively by a microplate reader using Cell Titer-Glo® (Promega, US) chemiluminescence cell viability assay kit.

CHL = assay: Cell growth (Cell Titer-Glo viability), CHL; type: cell-based, Chinese hamster; settings: Cricetulus griseus
Text: as §1, §2

A549 = assay: Growth of cancer cells (Cell Titer-Glo viability), A549; type: cell-based; settings: Homo sapiens; A549 (wild-type EGFR), 72 hrs
Text: as §1, §2

PC-9 = assay: Growth of cancer cells (Cell Titer-Glo viability), PC-9; type: cell-based; settings: Homo sapiens; PC-9 (EGFR delE746_A750 mutant), 72 hrs
Text: as §1, §2

A431 = assay: Growth of cancer cells (Cell Titer-Glo viability), A431; type: cell-based; settings: Homo sapiens
Text: as §1, §2

CHO = assay: Cell growth (Cell Titer-Glo viability), CHO; type: cell-based, Chinese hamster; settings: Cricetulus griseus
Text: as §1, §2

NCI-H1975 = assay: Growth of cancer cells (Cell Titer-Glo viability), NCI-H1975; type: cell-based; settings: Homo sapiens; NCI-H1975 (EGFR L858R/T790M double mutant), 72 hrs
Text: as §1, §2

BaF3 = assay: Cell growth (Cell Titer-Glo viability), BaF3; type: cell-based; settings: BaF3 mouse primary B cell, 72 hrs
Text: as §1, §2

NCI-H2228 = assay: Growth of cancer cells (Cell Titer-Glo viability), NCI-H2228; type: cell-based; settings: Homo sapiens; NCI-H2228 (wild-type ALK), 72 hrs
Text: as §1, §2

HCC827 = assay: Growth of cancer cells (Cell Titer-Glo viability), HCC827; type: cell-based; settings: Homo sapiens; HCC827 (mutant EGFR del19), 72 hrs
Text: as §1, §2

BaF3-TEL-ALK = assay: Cell growth (Cell Titer-Glo viability), BaF3-TEL-ALK; type: cell-based; settings: Mus musculus; BaF3-TEL-ALK (stably expressing ALK kinase), 72 hrs
Text: as §1, §2

BaF3-NPM-ALK = assay: Cell growth (Cell Titer-Glo viability), BaF3-NPM-ALK; type: cell-based; settings: Mus musculus; BaF3-NPM-ALK (stably expressing ALK kinase), 72 hrs
Text: as §1, §2

BaF3-FL-EGFR-Del19 = assay: Cell growth (Cell Titer-Glo viability), BaF3-FL-EGFR-Del19; type: cell-based; settings: Mus musculus; BaF3-FL-EGFR-Del19 (EGFR delE746_A750 mutant kinase), 72 hrs
Text: as §1, §2

NCI-H2122 = assay: Growth of cancer cells (Cell Titer-Glo viability), NCI-H2122; type: cell-based; settings: Homo sapiens; NCI-H2122 (wild-type EGFR), 72 hrs
Text: as §1, §2

BaF3-TEL-EGFR-T790M = assay: Cell growth (Cell Titer-Glo viability), BaF3-TEL-EGFR-T790M; type: cell-based; settings: Mus musculus; BaF3-TEL-EGFR-T790M (EGFR T790M mutant kinase), 72 hrs
Text: as §1, §2

BaF3-ALK-F1174L = assay: Cell growth (Cell Titer-Glo viability), BaF3-ALK-F1174L; type: cell-based; settings: Mus musculus; BaF3-ALK-F1174L (mutant ALK F1174L kinase), 72 hrs
Text: as §1, §2

[1] = NCI-H3122 (expressing ALK gene), 72 hrs, read-out: GI50
[2] = CHL Chinese hamster lung cell, 72 hrs, read-out: GI50
[3] = A-431, A431 (wild-type EGFR), 72 hrs, read-out: GI50
[4] = CHO Chinese hamster ovary cell, 72 hrs, read-out: GI50

| Compound | GI50 (NCI-H3122; [1]) | GI50 (A549) | GI50 (PC-9) | GI50 (A431; [3]) | GI50 (NCI-H1975) | GI50 (BaF3) | GI50 (NCI-H2228) | GI50 (HCC827) | GI50 (BaF3-TEL-ALK) | GI50 (BaF3-NPM-ALK) | GI50 (BaF3-FL-EGFR-Del19) | GI50 (NCI-H2122) | GI50 (BaF3-TEL-EGFR-T790M) | GI50 (BaF3-ALK-F1174L) | GI50 (NCI-H3122; NCI-H3122, 72 h) | GI50 (A431; A-431, 72 h) | GI50 (CHL; [2]) | GI50 (CHO; [4]) | GI50 (CHL; CHL, 72 h) | GI50 (CHO; CHO, 72 h) |
| --- | --- | --- | --- | --- | --- | --- | --- | --- | --- | --- | --- | --- | --- | --- | --- | --- | --- | --- | --- | --- |
| C=CC(=O)Nc1cc(Nc2ncc(Cl)c(Nc3cccc(C(F)(F)F)c3)n2)c(OC)cc1N1CCN(C)CC1 [Compound 18, N-(5-(5-chloro-4-(3-(trifluoromethyl)phenylamino)pyrimidin-2-ylamino)-4-methoxy-2-(4-methylpiperazin-1-yl)phenyl)acrylamide] | 770 nM | > 10000 nM | 160 nM | 4600 nM | 260 nM | 4300 nM | 170 nM | 46 nM | 180 nM | – | < 0.3 nM | 3400 nM | 80 nM | 1700 nM | – | – | 4200 nM | 5400 nM | – | – |
| C=CC(=O)Nc1cc(Nc2ncc(Cl)c(Nc3ccccc3S(=O)(=O)C(C)C)n2)c(OC)cc1N1CCN(Cc2ccccc2)CC1 [Compound 16, N-(2-(4-benzylpiperazin-1-yl)-5-(5-chloro-4-(2-(isopropylsulfonyl)phenylamino)pyrimidin-2-ylamino)-4-methoxyphenyl)acrylamide] | 20 nM | 4500 nM | 230 nM | 4200 nM | 310 nM | 4100 nM | 66 nM | – | 16 nM | 16 nM | – | 1100 nM | – | – | – | – | > 10000 nM | 1300 nM | – | – |
| C[C@@H](Oc1cc(-c2cnn(C3CCNCC3)c2)cnc1N)c1c(Cl)ccc(F)c1Cl [Crizotinib, reference compound] | – | – | – | – | – | – | – | – | – | – | – | – | – | – | 73 nM | 1000 nM | – | – | 1900 nM | 6400 nM |
| C=CC(=O)Nc1cc(Nc2ncc(Cl)c(Nc3ccccc3S(=O)(=O)C(C)C)n2)c(OC)cc1N1CCN(C2CCCCC2)CC1 [Compound 15, N-(5-(5-chloro-4-(2-(isopropylsulfonyl)phenylamino)pyrimidin-2-ylamino)-2-(4-cyclohexylpiperazin-1-yl)-4-methoxyphenyl)acrylamide] | < 0.3 nM | 390 nM | 36 nM | 370 nM | 77 nM | 300 nM | 70 nM | 38 nM | 7.5 nM | < 0.3 nM | – | – | – | – | – | – | 1400 nM | 170 nM | – | – |

More lines, main results first:

| GI50 (NCI-H3122; [1]) | GI50 (A549) | GI50 (PC-9) | GI50 (A431; [3]) | GI50 (NCI-H1975) | GI50 (BaF3) | GI50 (NCI-H2228) | GI50 (HCC827) | GI50 (BaF3-TEL-ALK) | GI50 (BaF3-NPM-ALK) | GI50 (BaF3-FL-EGFR-Del19) | GI50 (NCI-H2122) | GI50 (BaF3-TEL-EGFR-T790M) | GI50 (BaF3-ALK-F1174L) | GI50 (NCI-H3122; NCI-H3122, 72 h) | GI50 (A431; A-431, 72 h) | Compound | GI50 (CHL; [2]) | GI50 (CHO; [4]) | GI50 (CHL; CHL, 72 h) | GI50 (CHO; CHO, 72 h) |
| --- | --- | --- | --- | --- | --- | --- | --- | --- | --- | --- | --- | --- | --- | --- | --- | --- | --- | --- | --- | --- |
| < 0.3 nM | 630 nM | 12 nM | 470 nM | 41 nM | 1400 nM | 5.9 nM | 15 nM | > 10000 nM | < 0.3 nM | – | – | – | – | – | – | C=CC(=O)Nc1cc(Nc2ncc(Cl)c(Nc3ccccc3S(=O)(=O)C(C)C)n2)c(OC)cc1N1CCN(CCOC)CC1 [Compound 13, N-(5-(5-chloro-4-(2-(isopropylsulfonyl)phenylamino)pyrimidin-2-ylamino)-4-methoxy-2-(4-(2-methoxyethyl)piperazin-1-yl)phenyl)acrylamide] | 3700 nM | 470 nM | – | – |
| 7 nM | 2200 nM | 45 nM | 430 nM | 24 nM | 2000 nM | 7.4 nM | 16 nM | 8 nM | – | 15 nM | 1300 nM | 62 nM | 1500 nM | – | – | C=CC(=O)Nc1cc(Nc2ncc(Cl)c(Nc3ccccc3S(=O)(=O)C(C)C)n2)c(OC)cc1N1CCNCC1 [Compound 4, N-(5-(5-chloro-4-(2-(isopropylsulfonyl)phenylamino)pyrimidin-2-ylamino)-4-methoxy-2-(piperazin-1-yl)phenyl) acrylamide] | 4900 nM | > 10000 nM | – | – |
| – | 360 nM | 90 nM | 840 nM | 1200 nM | – | 31 nM | 110 nM | – | 1 nM | – | 1030 nM | – | 630 nM | – | – | C=CC(=O)Nc1cc(Nc2ncc(Cl)c(Nc3ccccc3S(=O)(=O)C(C)C)n2)c(OC)cc1N1CCOCC1 [Compound 7, N-(5-(5-chloro-4-(2-(isopropylsulfonyl)phenylamino)pyrimidin-2-ylamino)-4-methoxy-2-morpholinylphenyl) acrylamide] | 9100 nM | 2900 nM | – | – |
| – | 480 nM | 71 nM | 71 nM | 140 nM | – | 31 nM | 64 nM | – | 1 nM | – | 621 nM | – | 1000 nM | – | – | C=CC(=O)Nc1cc(Nc2ncc(Cl)c(Nc3ccccc3S(=O)(=O)C(C)C)n2)c(OC)cc1N1CCN[C@H](C)C1 [Compound 28, (R)—N-(5-(5-chloro-4-(2-(isopropylsulfonyl)phenylamino)pyrimidin-2-ylamino)-4-methoxy-2-(3-methylpiperazin-1-yl)phenyl)acrylamide] | 3300 nM | 1700 nM | – | – |
| < 0.3 nM | 130 nM | – | 350 nM | 100 nM | – | 28 nM | 32 nM | – | < 0.3 nM | – | 4300 nM | – | – | – | – | C=CC(=O)Nc1cc(Nc2ncc(Cl)c(Nc3ccccc3S(=O)(=O)C(C)C)n2)c(OC)cc1N1CCN(CC2CC2)CC1 [Compound 14, N-(5-(5-chloro-4-(2-(isopropylsulfonyl)phenylamino)pyrimidin-2-ylamino)-2-(4-(cyclopropylmethyl)piperazin-1-yl)-4-methoxyphenyl)acrylamide] | 2000 nM | 300 nM | – | – |
| – | 690 nM | 62 nM | 100 nM | 120 nM | – | 73 nM | 59 nM | – | 3 nM | – | 680 nM | – | 950 nM | – | – | C=CC(=O)Nc1cc(Nc2ncc(Cl)c(Nc3ccccc3S(=O)(=O)C(C)C)n2)c(OC)cc1N1CCN[C@@H](C)C1 [Compound 29, (S)—N-(5-(5-chloro-4-(2-(isopropylsulfonyl)phenylamino)pyrimidin-2-ylamino)-4-methoxy-2-(3-methylpiperazin-1-yl)phenyl)acrylamide] | 3700 nM | 1500 nM | – | – |
